“And” between values parts separate entries of the source, which are not always exact repeats. Equal values may be shown once.
Legend:
[1] = target: D(3) dopamine receptor (Homo sapiens, UniProt P35462)
[2] = target: D(1B) dopamine receptor (Homo sapiens, UniProt P21918)
[3] = target: T1, 5-hydroxytryptamine receptor 1A (Rattus norvegicus, UniProt P19327)
T1 sequence (P19327 whole entry): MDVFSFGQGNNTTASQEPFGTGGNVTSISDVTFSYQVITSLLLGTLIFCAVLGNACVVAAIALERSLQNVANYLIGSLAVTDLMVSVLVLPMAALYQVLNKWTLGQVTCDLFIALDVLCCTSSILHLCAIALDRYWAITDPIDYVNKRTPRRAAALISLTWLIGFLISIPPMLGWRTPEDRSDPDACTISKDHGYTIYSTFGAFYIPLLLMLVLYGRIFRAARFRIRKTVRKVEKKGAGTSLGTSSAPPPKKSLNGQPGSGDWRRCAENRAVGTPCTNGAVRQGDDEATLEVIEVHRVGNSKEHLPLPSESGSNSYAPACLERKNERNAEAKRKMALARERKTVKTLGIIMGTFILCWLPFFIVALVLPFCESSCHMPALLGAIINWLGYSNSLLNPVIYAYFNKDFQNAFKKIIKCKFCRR

[4] = target: 5-hydroxytryptamine receptor 1B (Homo sapiens, UniProt P28222)
Sequence of 5-hydroxytryptamine receptor 1B (Homo sapiens, UniProt P28222) (P28222 whole entry): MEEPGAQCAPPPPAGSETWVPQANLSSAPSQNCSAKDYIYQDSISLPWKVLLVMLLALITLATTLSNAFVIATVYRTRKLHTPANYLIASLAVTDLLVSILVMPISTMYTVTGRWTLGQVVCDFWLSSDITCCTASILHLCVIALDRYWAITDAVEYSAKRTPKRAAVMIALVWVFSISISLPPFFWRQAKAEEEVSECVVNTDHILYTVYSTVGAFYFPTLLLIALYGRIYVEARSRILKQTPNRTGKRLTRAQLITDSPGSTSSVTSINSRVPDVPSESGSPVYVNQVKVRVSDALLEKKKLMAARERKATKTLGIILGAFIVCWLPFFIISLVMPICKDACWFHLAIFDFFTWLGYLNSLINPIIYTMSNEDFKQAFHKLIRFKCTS

[5] = target: T2, D(4) dopamine receptor (Homo sapiens, UniProt P21917)
T2 sequence (P21917 whole entry): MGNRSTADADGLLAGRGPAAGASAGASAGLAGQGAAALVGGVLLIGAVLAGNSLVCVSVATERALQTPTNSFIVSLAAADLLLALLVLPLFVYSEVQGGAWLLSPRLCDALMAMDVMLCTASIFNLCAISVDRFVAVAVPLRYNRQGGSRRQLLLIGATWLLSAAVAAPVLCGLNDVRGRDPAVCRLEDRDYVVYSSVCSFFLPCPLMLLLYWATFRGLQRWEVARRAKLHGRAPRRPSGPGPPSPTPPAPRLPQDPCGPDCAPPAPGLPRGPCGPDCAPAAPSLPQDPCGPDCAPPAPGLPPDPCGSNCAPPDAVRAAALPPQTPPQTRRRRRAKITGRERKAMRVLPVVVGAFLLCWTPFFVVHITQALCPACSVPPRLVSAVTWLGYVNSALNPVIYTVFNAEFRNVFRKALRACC

[6] = target: D(2) dopamine receptor (Rattus norvegicus, UniProt P61169)
Sequence of D(2) dopamine receptor (Rattus norvegicus, UniProt P61169) (P61169 whole entry): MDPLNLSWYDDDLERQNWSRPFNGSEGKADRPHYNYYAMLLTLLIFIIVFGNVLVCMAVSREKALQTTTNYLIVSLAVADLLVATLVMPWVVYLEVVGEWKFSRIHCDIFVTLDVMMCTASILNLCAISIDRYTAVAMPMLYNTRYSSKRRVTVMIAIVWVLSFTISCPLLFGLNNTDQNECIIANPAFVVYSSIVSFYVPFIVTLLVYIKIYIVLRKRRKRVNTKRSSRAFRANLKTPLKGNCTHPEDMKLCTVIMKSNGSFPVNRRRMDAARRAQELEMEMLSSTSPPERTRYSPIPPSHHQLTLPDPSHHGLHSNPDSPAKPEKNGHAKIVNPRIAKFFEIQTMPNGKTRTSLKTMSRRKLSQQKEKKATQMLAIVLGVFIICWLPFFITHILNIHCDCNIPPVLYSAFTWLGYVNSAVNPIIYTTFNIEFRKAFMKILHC

[7] = target: 5-hydroxytryptamine receptor 1D (Homo sapiens, UniProt P28221)
Sequence of 5-hydroxytryptamine receptor 1D (P28221 whole entry): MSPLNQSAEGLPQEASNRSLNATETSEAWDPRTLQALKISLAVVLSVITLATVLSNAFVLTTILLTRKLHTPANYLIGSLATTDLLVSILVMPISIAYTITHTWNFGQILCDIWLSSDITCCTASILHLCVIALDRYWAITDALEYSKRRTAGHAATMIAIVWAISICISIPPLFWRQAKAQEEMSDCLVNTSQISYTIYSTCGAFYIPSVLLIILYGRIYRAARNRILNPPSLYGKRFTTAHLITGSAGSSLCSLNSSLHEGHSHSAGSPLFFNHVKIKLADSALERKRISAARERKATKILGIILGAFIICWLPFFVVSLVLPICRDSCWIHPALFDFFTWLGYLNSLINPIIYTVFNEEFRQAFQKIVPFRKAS

[8] = target: 5-hydroxytryptamine receptor 2B (Homo sapiens, UniProt P41595)
Sequence of 5-hydroxytryptamine receptor 2B (P41595 whole entry): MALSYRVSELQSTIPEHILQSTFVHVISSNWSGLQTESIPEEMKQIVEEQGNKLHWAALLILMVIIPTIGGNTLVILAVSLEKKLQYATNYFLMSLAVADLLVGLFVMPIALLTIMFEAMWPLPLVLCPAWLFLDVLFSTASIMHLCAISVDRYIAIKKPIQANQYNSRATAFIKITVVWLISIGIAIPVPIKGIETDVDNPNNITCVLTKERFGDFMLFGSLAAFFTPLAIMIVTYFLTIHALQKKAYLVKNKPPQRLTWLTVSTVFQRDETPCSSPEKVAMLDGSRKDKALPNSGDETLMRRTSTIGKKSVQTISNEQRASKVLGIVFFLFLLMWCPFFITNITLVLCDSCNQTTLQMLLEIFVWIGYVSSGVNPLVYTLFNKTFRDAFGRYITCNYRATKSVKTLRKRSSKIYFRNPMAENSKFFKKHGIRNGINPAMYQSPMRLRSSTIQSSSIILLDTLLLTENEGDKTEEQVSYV

[9] = target: 5-hydroxytryptamine receptor 2A (Rattus norvegicus, UniProt P14842)
Sequence of 5-hydroxytryptamine receptor 2A (Rattus norvegicus, UniProt P14842) (P14842 whole entry): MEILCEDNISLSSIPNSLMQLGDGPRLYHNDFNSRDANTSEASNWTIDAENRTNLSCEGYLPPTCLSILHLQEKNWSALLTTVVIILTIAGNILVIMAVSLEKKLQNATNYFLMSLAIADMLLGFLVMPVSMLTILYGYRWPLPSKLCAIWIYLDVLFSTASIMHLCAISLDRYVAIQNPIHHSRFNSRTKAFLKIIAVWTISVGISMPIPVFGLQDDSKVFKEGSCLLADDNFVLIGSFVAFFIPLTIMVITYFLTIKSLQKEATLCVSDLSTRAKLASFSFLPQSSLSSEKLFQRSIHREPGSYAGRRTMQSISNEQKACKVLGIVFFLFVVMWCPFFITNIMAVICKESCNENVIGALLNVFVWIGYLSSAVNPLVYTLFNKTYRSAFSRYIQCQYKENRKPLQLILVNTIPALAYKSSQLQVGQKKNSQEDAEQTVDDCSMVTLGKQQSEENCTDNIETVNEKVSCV

[10] = target: T3, Alpha-1A adrenergic receptor (Rattus norvegicus, UniProt P43140)
T3 sequence (P43140 whole entry): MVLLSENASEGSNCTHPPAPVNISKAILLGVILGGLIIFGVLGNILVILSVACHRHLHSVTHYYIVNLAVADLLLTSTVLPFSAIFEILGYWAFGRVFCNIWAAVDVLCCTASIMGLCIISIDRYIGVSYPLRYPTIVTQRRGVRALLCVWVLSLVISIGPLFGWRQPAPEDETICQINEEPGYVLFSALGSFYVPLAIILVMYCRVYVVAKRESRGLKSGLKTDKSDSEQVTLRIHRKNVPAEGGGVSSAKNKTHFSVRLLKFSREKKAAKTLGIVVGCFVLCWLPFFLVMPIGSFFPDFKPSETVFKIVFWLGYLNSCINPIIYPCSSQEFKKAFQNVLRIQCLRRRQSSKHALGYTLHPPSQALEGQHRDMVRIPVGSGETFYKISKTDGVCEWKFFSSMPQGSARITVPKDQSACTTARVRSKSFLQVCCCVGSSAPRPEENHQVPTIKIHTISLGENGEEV

[11] = target: T4, Alpha-2A adrenergic receptor [16-465] (Rattus norvegicus, UniProt P22909)
T4 construct: 16-465
T4 sequence (P22909 whole entry): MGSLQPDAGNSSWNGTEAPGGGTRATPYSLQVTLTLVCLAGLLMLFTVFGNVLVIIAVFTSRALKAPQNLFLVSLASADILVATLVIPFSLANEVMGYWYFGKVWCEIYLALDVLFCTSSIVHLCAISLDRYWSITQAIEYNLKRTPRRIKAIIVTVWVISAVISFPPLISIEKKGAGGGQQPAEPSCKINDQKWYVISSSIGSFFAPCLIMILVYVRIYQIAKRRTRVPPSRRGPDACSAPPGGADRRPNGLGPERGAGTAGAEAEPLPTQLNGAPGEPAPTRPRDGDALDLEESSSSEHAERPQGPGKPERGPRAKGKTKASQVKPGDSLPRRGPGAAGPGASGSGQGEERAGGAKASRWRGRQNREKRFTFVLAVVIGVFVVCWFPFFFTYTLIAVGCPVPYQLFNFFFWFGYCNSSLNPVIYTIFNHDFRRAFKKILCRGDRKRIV

[12] = target: 5-hydroxytryptamine receptor 2C (Sus scrofa, UniProt G7ZKZ7)
[13] = target: Muscarinic acetylcholine receptor M1 (Homo sapiens, UniProt P11229)
[14] = target: D(1A) dopamine receptor (Rattus norvegicus, UniProt P18901)
[15] = target: D(1A) dopamine receptor (Homo sapiens, UniProt P21728)
Sequence of D(1A) dopamine receptor (Homo sapiens, UniProt P21728) (P21728 whole entry): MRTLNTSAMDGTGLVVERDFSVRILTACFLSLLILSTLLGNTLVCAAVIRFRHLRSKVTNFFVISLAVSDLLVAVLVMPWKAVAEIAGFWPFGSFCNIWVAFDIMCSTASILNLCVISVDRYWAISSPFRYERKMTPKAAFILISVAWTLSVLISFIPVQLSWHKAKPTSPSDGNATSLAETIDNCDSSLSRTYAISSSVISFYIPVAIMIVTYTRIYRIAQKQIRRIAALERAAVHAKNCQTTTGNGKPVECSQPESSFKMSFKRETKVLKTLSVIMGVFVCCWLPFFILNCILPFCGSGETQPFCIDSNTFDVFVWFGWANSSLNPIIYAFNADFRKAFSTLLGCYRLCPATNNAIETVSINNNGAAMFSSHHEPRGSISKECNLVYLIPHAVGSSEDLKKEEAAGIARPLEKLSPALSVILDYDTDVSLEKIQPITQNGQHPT

[16] = target: 5-hydroxytryptamine receptor 1A (Homo sapiens, UniProt P08908)
[17] = target: Sigma non-opioid intracellular receptor 1 (Cavia porcellus, UniProt Q60492)
Sequence of Sigma non-opioid intracellular receptor 1 (Q60492 whole entry): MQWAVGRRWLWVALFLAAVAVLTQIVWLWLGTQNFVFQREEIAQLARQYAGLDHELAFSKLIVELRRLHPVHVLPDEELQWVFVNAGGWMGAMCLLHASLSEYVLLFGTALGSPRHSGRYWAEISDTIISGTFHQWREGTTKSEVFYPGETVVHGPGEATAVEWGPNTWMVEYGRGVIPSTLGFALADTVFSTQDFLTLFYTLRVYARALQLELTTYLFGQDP

[18] = target: 5-hydroxytryptamine receptor 2C (Homo sapiens, UniProt P28335)
Sequence of 5-hydroxytryptamine receptor 2C (Homo sapiens, UniProt P28335) (P28335 whole entry): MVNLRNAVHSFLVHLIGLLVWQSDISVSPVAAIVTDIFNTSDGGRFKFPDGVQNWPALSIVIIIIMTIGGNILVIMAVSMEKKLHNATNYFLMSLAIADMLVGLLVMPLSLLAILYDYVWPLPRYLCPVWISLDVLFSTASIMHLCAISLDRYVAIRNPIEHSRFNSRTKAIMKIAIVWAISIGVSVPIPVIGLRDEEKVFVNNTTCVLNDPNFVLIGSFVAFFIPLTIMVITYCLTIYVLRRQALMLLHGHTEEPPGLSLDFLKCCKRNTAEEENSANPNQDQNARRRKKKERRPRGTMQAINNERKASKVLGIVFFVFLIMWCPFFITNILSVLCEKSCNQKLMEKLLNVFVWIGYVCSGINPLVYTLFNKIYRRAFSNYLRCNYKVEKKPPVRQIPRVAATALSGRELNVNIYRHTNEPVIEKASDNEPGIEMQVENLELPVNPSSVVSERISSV

[19] = target: D(2) dopamine receptor (Homo sapiens, UniProt P14416)
Sequence of D(2) dopamine receptor (Homo sapiens, UniProt P14416) (P14416 whole entry): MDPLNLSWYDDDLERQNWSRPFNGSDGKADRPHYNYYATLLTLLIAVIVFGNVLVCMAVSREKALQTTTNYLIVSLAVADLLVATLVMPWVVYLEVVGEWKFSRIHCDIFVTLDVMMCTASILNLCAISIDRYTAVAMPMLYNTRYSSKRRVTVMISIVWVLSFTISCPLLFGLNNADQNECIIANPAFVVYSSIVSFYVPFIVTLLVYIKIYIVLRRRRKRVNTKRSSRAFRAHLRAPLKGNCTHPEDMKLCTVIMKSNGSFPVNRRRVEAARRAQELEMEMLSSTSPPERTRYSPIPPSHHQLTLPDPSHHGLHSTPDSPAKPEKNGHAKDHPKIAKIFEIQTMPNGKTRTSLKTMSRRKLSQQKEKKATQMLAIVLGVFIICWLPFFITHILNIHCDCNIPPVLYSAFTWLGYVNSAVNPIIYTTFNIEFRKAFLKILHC

[20] = target: 5-hydroxytryptamine receptor 1B (Cavia porcellus, UniProt O08892)
[21] = target: 5-hydroxytryptamine receptor 3A (Homo sapiens, UniProt P46098)
[22] = target: 5-hydroxytryptamine receptor 2A (Homo sapiens, UniProt P28223)

Sequence of D(1B) dopamine receptor (P21918 whole entry): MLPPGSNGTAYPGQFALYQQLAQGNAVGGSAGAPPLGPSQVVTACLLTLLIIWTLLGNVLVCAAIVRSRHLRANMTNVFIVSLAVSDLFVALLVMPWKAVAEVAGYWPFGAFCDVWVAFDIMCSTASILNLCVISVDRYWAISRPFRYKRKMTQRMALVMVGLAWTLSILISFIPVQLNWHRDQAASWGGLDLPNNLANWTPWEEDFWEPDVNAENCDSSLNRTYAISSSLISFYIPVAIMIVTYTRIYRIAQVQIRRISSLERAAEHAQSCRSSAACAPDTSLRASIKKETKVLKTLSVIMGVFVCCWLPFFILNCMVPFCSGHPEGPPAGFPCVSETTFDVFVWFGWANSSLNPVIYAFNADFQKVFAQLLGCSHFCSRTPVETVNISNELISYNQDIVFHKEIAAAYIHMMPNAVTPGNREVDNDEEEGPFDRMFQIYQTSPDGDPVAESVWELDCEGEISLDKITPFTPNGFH
Sequence of D(3) dopamine receptor (P35462 as listed by the source): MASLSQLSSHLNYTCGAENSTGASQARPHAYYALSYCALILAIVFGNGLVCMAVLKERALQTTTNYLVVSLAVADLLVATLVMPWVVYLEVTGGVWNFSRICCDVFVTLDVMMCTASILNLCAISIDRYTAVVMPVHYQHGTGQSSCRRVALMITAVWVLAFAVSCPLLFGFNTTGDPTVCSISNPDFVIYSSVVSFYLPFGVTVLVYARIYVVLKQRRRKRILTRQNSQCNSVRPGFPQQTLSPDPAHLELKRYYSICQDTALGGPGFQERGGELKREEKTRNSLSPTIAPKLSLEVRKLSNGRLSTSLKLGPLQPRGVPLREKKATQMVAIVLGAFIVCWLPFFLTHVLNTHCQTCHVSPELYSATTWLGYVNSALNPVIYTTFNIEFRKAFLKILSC

Compound | Ki [1] | Ki [2] | Ki [3] | Ki [4] | Ki [5] | Ki [6] | Ki [7] | Ki [8] | Ki [9] | Ki [10] | Ki [11] | Ki [12] | Ki [15] | Ki [17] | Ki [18] | Ki [19] | Ki [22] | further results
OC1(c2ccc(Cl)cc2)CCN(Cc2c[nH]c3ccccc23)CC1 [L741,626] | 63.1 nM and 87.1 nM | 631 nM | 3980 nM | 1000 nM | 316 nM | 6.31 nM | 1000 nM | 631 nM | 1000 nM | 251 nM | 1260 nM | 3980 nM |  |  |  |  |  | 
N#Cc1ccc2c(c1)[C@H]1CN(CCCCNC(=O)c3ccc(-c4ccccc4)cc3)C[C@@H]1CO2 [S33084] | 0.25 nM and 0.4 nM | 1260 nM | 126 nM | 794 nM | 2000 nM | 50.1 nM | 126 nM | 158 nM | 1000 nM | 126 nM | 1000 nM |  | 501 nM | 1000 nM | 79.4 nM | 52.5 nM | 1000 nM | Ki [13]: 398 nM; Ki [14]: 1000 nM; Ki [16]: 1000 nM; Ki [20]: 1000 nM; Ki [21]: 1000 nM
CCCN(CCC)C1CCc2cc(CS(=O)(=O)c3ccc(OC)cc3)ccc2C1 (stereo not given) [GR218231] | 1 nM and 1.35 nM | 1000 nM | 501 nM | 1000 nM | > 10000 nM | 79.4 nM | 1000 nM | 1000 nM | 1000 nM | 1000 nM | 398 nM | 1000 nM | 1000 nM | 158 nM | 1000 nM | 63.1 nM and 138 nM | 1000 nM | 

Reference: BindingDB's records for PubMed 10869410 (Centre De Recherches De Croissy, 2000)
